The source made the active and inactive calls. No rule for the calls is given here.
Tested on: CCRIS mutagenicity, Ames/micronucleus/aberration tests
Assay: CCRIS mutagenicity studies
[1] = Test System: AMES SALMONELLA TYPHIMURIUM, Strain/Indicator: TA98, Metabolic Activation: NONE, Method: STANDARD PLATE
[2] = Test System: AMES SALMONELLA TYPHIMURIUM, Strain/Indicator: TA98, Metabolic Activation: RAT, LIVER, S-9, AROCLOR 1254, Method: STANDARD PLATE
[3] = Test System: AMES SALMONELLA TYPHIMURIUM, Strain/Indicator: TA98, Metabolic Activation: RAT, LIVER, S-9, PHENOBARBITAL, Method: STANDARD PLATE
[4] = Test System: AMES SALMONELLA TYPHIMURIUM, Strain/Indicator: TA100, Metabolic Activation: NONE, Method: STANDARD PLATE

SMILES: O=[N+]([O-])c1c2ccccc2c2ccc3cccc4ccc1c2c43
- mutagenic call (Test System: AMES SALMONELLA TYPHIMURIUM, Strain/Indicator: TA98 (1,8-DNP6), Metabolic Activation: NONE, Method: STANDARD PLATE): inactive; negative
- mutagenic call (Test System: AMES SALMONELLA TYPHIMURIUM, Strain/Indicator: TA98 (NR), Metabolic Activation: NONE, Method: STANDARD PLATE): inactive; negative
- mutagenic call [1]: inactive; negative
- mutagenic call (Test System: AMES SALMONELLA TYPHIMURIUM, Strain/Indicator: TA98, Metabolic Activation: NONE, Method: STANDARD PLATE (ANAEROBIC)): inactive; negative
- mutagenic call (Test System: AMES SALMONELLA TYPHIMURIUM, Strain/Indicator: TA98, Metabolic Activation: RAT, LIVER, HEPATOCYTES, AROCLOR 1254): inactive; negative
- mutagenic call (Test System: AMES SALMONELLA TYPHIMURIUM, Strain/Indicator: TA98, Metabolic Activation: RAT, LIVER, S-9, 3-METHYLCHOLANTHRENE, Method: STANDARD PLATE): active; positive
- mutagenic call [2]: active; positive
- mutagenic call (Test System: AMES SALMONELLA TYPHIMURIUM, Strain/Indicator: TA98, Metabolic Activation: RAT, LIVER, S-9, BETA-NAPHTHOFLAVONE, Method: STANDARD PLATE): active; positive
- mutagenic call [3]: inactive; negative
- mutagenic call [4]: inactive; negative
- mutagenic call (Test System: AMES SALMONELLA TYPHIMURIUM, Strain/Indicator: TA100, Metabolic Activation: RAT, LIVER, S-9, AROCLOR 1254 (20 OR 50 µL), Method: STANDARD PLATE): active; positive
- mutagenic call (Test System: CHINESE HAMSTER OVARY, Strain/Indicator: CHO-K1-BH4 (HGPRT), Metabolic Activation: NONE): inactive; negative
- mutagenic call (Test System: CHO/HGPRT, Strain/Indicator: CHO-K1-BH4, Metabolic Activation: NONE): inactive; negative
- mutagenic call (Test System: CHO/HGPRT, Strain/Indicator: CHO-K1-BH4, Metabolic Activation: RAT, LIVER, HEPATOCYTES): inactive; negative
- mutagenic call (Test System: CHO/HGPRT, Strain/Indicator: CHO-K1-BH4, Metabolic Activation: RAT, LIVER, HEPATOCYTES, 3-METHYLCHOLANTHRENE): inactive; negative
- mutagenic call (Test System: CHO/HGPRT, Strain/Indicator: CHO-K1-BH4, Metabolic Activation: RAT, LIVER, HEPATOCYTES, AROCLOR 1254): inactive; negative
- mutagenic call (Test System: CHO/HGPRT, Strain/Indicator: CHO-K1-BH4, Metabolic Activation: RAT, LIVER, S-9): inactive; negative
- mutagenic call (Test System: CHO/HGPRT, Strain/Indicator: CHO-K1-BH4, Metabolic Activation: RAT, LIVER, S-9, 3-METHYLCHOLANTHRENE): inactive; negative
- mutagenic call (Test System: CHO/HGPRT, Strain/Indicator: CHO-K1-BH4, Metabolic Activation: RAT, LIVER, S-9, AROCLOR 1254): inactive; negative

SMILES: CCN(C(C)=O)c1ccc2c(c1)Cc1ccccc1-2
- mutagenic call [2]: active; positive

SMILES: Brc1ccc2c(c1)[C@@H]1O[C@@H]1[C@H]1CCCC[C@H]21
- mutagenic call [1]: inactive; negative
- mutagenic call [4]: inactive; negative

SMILES: c1ccc2c(c1)Oc1ccccc1S2
- mutagenic call (Test System: AMES SALMONELLA TYPHIMURIUM, Strain/Indicator: TA97, Metabolic Activation: HAMSTER, LIVER, S-9, AROCLOR 1254 (10 OR 30%), Method: PREINCUBATION): inactive; negative
- mutagenic call (Test System: AMES SALMONELLA TYPHIMURIUM, Strain/Indicator: TA97, Metabolic Activation: NONE, Method: PREINCUBATION): inactive; negative
- mutagenic call (Test System: AMES SALMONELLA TYPHIMURIUM, Strain/Indicator: TA97, Metabolic Activation: RAT, LIVER, S-9, AROCLOR 1254 (10 OR 30%), Method: PREINCUBATION): inactive; negative
- mutagenic call (Test System: AMES SALMONELLA TYPHIMURIUM, Strain/Indicator: TA98, Metabolic Activation: HAMSTER, LIVER, S-9, AROCLOR 1254 (10 OR 30%), Method: PREINCUBATION): inactive; negative
- mutagenic call (Test System: AMES SALMONELLA TYPHIMURIUM, Strain/Indicator: TA98, Metabolic Activation: NONE, Method: PREINCUBATION): inactive; negative
- mutagenic call (Test System: AMES SALMONELLA TYPHIMURIUM, Strain/Indicator: TA98, Metabolic Activation: RAT, LIVER, S-9, AROCLOR 1254 (10 OR 30%), Method: PREINCUBATION): inactive; negative
- mutagenic call (Test System: AMES SALMONELLA TYPHIMURIUM, Strain/Indicator: TA100, Metabolic Activation: HAMSTER, LIVER, S-9, AROCLOR 1254 (10 OR 30%), Method: PREINCUBATION): inactive; negative
- mutagenic call (Test System: AMES SALMONELLA TYPHIMURIUM, Strain/Indicator: TA100, Metabolic Activation: NONE, Method: PREINCUBATION): inactive; negative
- mutagenic call (Test System: AMES SALMONELLA TYPHIMURIUM, Strain/Indicator: TA100, Metabolic Activation: RAT, LIVER, S-9, AROCLOR 1254 (10 OR 30%), Method: PREINCUBATION): inactive; negative
- mutagenic call (Test System: AMES SALMONELLA TYPHIMURIUM, Strain/Indicator: TA1535, Metabolic Activation: HAMSTER, LIVER, S-9, AROCLOR 1254 (10 OR 30%), Method: PREINCUBATION): inactive; negative
- mutagenic call (Test System: AMES SALMONELLA TYPHIMURIUM, Strain/Indicator: TA1535, Metabolic Activation: NONE, Method: PREINCUBATION): inactive; negative
- mutagenic call (Test System: AMES SALMONELLA TYPHIMURIUM, Strain/Indicator: TA1535, Metabolic Activation: RAT, LIVER, S-9, AROCLOR 1254 (10 OR 30%), Method: PREINCUBATION): inactive; negative

SMILES: Nc1ccc(N=Nc2ccc(-c3ccc(N=Nc4c(S(=O)(=O)O)cc5c(c4N)C(=O)/C(=N/Nc4ccccc4)C(S(=O)(=O)O)=C5)cc3)cc2)c(N)c1
- mutagenic call (Test System: AMES SALMONELLA TYPHIMURIUM, Strain/Indicator: SV50, Metabolic Activation: HAMSTER, LIVER, S-9, Method: PREINCUBATION (PRIVAL METHOD)): active; positive
- mutagenic call (Test System: AMES SALMONELLA TYPHIMURIUM, Strain/Indicator: SV50, Metabolic Activation: RAT, LIVER, S-9, AROCLOR 1254, Method: PREINCUBATION (PRIVAL METHOD)): active; positive
- mutagenic call (Test System: AMES SALMONELLA TYPHIMURIUM, Strain/Indicator: TA98, Metabolic Activation: HAMSTER, LIVER, S-9, Method: PREINCUBATION (PRIVAL METHOD)): active; positive
- mutagenic call [1]: inactive; negative
- mutagenic call (Test System: AMES SALMONELLA TYPHIMURIUM, Strain/Indicator: TA98, Metabolic Activation: RAT, LIVER, S-9, AROCLOR 1254, Method: PREINCUBATION (PRIVAL METHOD)): active; positive
- mutagenic call [3]: inactive; negative
- mutagenic call [4]: inactive; negative
- mutagenic call (Test System: AMES SALMONELLA TYPHIMURIUM, Strain/Indicator: TA100, Metabolic Activation: RAT, LIVER, S-9, PHENOBARBITAL, Method: STANDARD PLATE): inactive; negative
- mutagenic call (Test System: AMES SALMONELLA TYPHIMURIUM, Strain/Indicator: TA1538, Metabolic Activation: NONE, Method: STANDARD PLATE): inactive; negative
- mutagenic call (Test System: AMES SALMONELLA TYPHIMURIUM, Strain/Indicator: TA1538, Metabolic Activation: RAT, LIVER, S-9, AROCLOR 1254, Method: STANDARD PLATE): active; positive
- mutagenic call (Test System: Ames Salmonella typhimurium, Strain/Indicator: TA98, Metabolic Activation: Rat, Liver, S-9, Sodium phenobarbitone, Method: Preincubation): active; positive, test conducted under both aerobic and anaerobic conditions.
- mutagenic call (Test System: Ames Salmonella typhimurium, Strain/Indicator: TA1538, Metabolic Activation: Rat, Liver, S-9, Sodium phenobarbitone, Method: Preincubation): active; positive, test conducted under both aerobic and anaerobic conditions.

SMILES: CC(C)=CC1C(C(=O)O)C1(C)C (stereo not drawn)
- mutagenic call [1]: inactive; negative
- mutagenic call [2]: inactive; negative
- mutagenic call [4]: inactive; negative
- mutagenic call (Test System: AMES SALMONELLA TYPHIMURIUM, Strain/Indicator: TA100, Metabolic Activation: RAT, LIVER, S-9, AROCLOR 1254, Method: STANDARD PLATE): inactive; negative
- mutagenic call (Test System: AMES SALMONELLA TYPHIMURIUM, Strain/Indicator: TA1535, Metabolic Activation: NONE, Method: STANDARD PLATE): inactive; negative
- mutagenic call (Test System: AMES SALMONELLA TYPHIMURIUM, Strain/Indicator: TA1535, Metabolic Activation: RAT, LIVER, S-9, AROCLOR 1254, Method: STANDARD PLATE): inactive; negative
- mutagenic call (Test System: AMES SALMONELLA TYPHIMURIUM, Strain/Indicator: TA1537, Metabolic Activation: NONE, Method: STANDARD PLATE): inactive; negative
- mutagenic call (Test System: AMES SALMONELLA TYPHIMURIUM, Strain/Indicator: TA1537, Metabolic Activation: RAT, LIVER, S-9, AROCLOR 1254, Method: STANDARD PLATE): inactive; negative
- mutagenic call (Test System: E. COLI, Strain/Indicator: WP2, Metabolic Activation: NONE, Method: STANDARD PLATE): inactive; negative
- mutagenic call (Test System: E. COLI, Strain/Indicator: WP2, Metabolic Activation: RAT, LIVER, S-9, AROCLOR 1254, Method: STANDARD PLATE): inactive; negative

SMILES: COC(=O)/C=C/C(C)=C\C=C\C(C)=C\C=C\C=C(C)\C=C\C=C(C)\C=C\C(=O)O
- mutagenic call (Test System: Mouse lymphoma, Strain/Indicator: L5178Y (tk+/tk-), Metabolic Activation: None, Method: Suspension/plate): inactive; negative
- mutagenic call (Test System: Mouse lymphoma, Strain/Indicator: L5178Y (tk+/tk-), Metabolic Activation: Rat, Liver, S-9, Aroclor 1254, Method: Suspension/plate): inactive; negative

Source: PubChem BioAssay AID1259407 (Chemical Carcinogenesis Research Information System (CCRIS), 2018)
